Series [1] deals with acetic acid ulcers in rats. Description: Anti-ulcerous effect on acetic acid-induced experimental gastric ulcers in rats (oral for 13 days from the day after ulceration), Table I. In kind it is in vivo, Donryu-strain male rats. Particulars: relative to glutamine. The text has this: The anti-ulcerous effects of the object compounds of this invention have been confirmed in tests on ulcers in rats. The ulcers were produced according to the method of K. Takagi, S. Okabe and R. Saziki, by the effect of acetic acid on the digestive organs (Japanese Journal of Pharmacology vol. 19 pages 418-426 (1969), Yakkyoku vol. 25 pages 1453-1459 (1974) and Experientia vol. 27 pages 146-148 (1971). It is known that this experimental ulcer resembles human peptic ulcers with respect to the overall and histological findings and as to the recovery process. The experimental details confirming the anti-ulcerous effect are as follows.
Donryu-strain male rats having a body weight -- 230-270g (ten rats to a group) were not fed for 24 hours and then were anesthesized with ether. A laparotomy was performed. The stomach was exposed and 0.05 ml of 10% acetic acid was injected into the subserosal layer in the glandular part of the anterior wall to produce the experimental ulcers. The abdomen was then closed. Beginning on the day after the ulceration, the compounds of this invention were orally administered to the rats for 13 days. The rats were fed normally and sacrificed on the 15th day after the ulcer formation. The size of the ulcer (length and width) in the glandular part of the stomach was measured and the product of the length and width was used as the ulcer index (UI). The curative ratio (%) was calculated from the ulcer index of the rats which were medicated as compared with the index of the control group. [formula]
For the purpose of comparing the effects with those of known drugs, the therapeutic effects of the compounds of this invention, tyrosine itself and gefarnate relative to those of glutamine were calculated and are listed in Table I. Of these compounds, gefarnate (geranyl farnesylacetate,U.S. Pat. No. 3,154,570 (1964) and glutamine are known anti-ulcerous drugs.

Series [2] has as its system chronic acetic acid ulcers in rats. The experiment in a line: Anti-ulcerous effect on chronic acetic acid ulcers in rats (oral, 41st to 54th day after ulceration), Table II. The series is classed as in vivo. Conditions: 14 days, relative to glutamine. As for the experimental part: Donryu-strain male rats having a body weight -- 230-270g (ten rats to a group) were not fed for 24 hours and then were anesthesized with ether. A laparotomy was performed. The stomach was exposed and 0.05 ml of 10% acetic acid was injected into the subserosal layer in the glandular part of the anterior wall to produce the experimental ulcers. The abdomen was then closed. […] […] The size of the ulcer (length and width) in the glandular part of the stomach was measured and the product of the length and width was used as the ulcer index (UI). The curative ratio (%) was calculated from the ulcer index of the rats which were medicated as compared with the index of the control group. [formula] Acetic acid ulcers in rats are known to undergo partial healing and re-ulceration so that these ulcers resemble human chronic ulcers, both histologically and functionally. In order to examine the anti-ulcerous effects on chronic ulcers, the compounds of this invention were orally administered to rats for 14 days, from the 41st day to the 54th day after ulceration with acetic acid. On the 55th day, the rats were sacrificed and the size of the ulcer was measured. The procedure used in ulceration and in the determination of effects are the same as those described hereinbefore.

Series [3] can be described thus: Acute toxicity, oral, mice. Particulars: in vivo, mouse p.o.

Relative therapeutic effect and LD50 data for 18 compounds are collected here from US4025644A, “Tyrosine derivatives and use” (Daiichi Seiyaku Co., Ltd., priority 1974, dated 1977).

Peptide text beside a SMILES is read from it. * marks the point of attachment. Bz = O=C(c1ccccc1)*

As to `O=C(N[C@H](CO)Cc1ccc(O)cc1)OCc1ccc(F)cc1`, the Relative therapeutic effect in series [1] (200 mg/kg/day) turned out to be 1.14. Consider `NC(=O)CC[C@H](N)C(=O)O` [Glutamine, glutamine, reference compound], for which the Relative therapeutic effect in series [2] (1000 mg/kg/day) came out at 1.00; in series [1] (200 mg/kg/day), 0.30; in series [1] (1000 mg/kg/day), 1.00.

In series [1] (200 mg/kg/day), `Nc1ccc(C(=O)N[C@H](CO)Cc2ccc(O)cc2)cc1` came in with a Relative therapeutic effect of 1.24.

Consider `N[C@@H](Cc1ccc(O)cc1)C(=O)O` [Tyrosine, tyrosine], for which the Relative therapeutic effect in series [1] (200 mg/kg/day) is 0.37.

For orientation: LD50 means the dose at which mortality reaches 50%. Lower therefore signals a more toxic substance. In series [2] (50 mg/kg/day), `COc1ccc(C(=O)N[C@@H](Cc2ccccc2)C(=O)N[C@@H](Cc2ccc(O)cc2)C(=O)O)cc1` [Compound (II) R3 =CH3 O, N-(4-methoxybenzoyl)-phenylalanyltyrosine] showed a Relative therapeutic effect of 7.85. The compound further registered an LD50 in series [3] above 4000 mg/kg.

`COc1ccc(C[C@@H](CO)NC(=O)OCc2ccc(OC)c(OC)c2)cc1` [O-methyl-N-(3,4-dimethoxybenzyloxycarbonyl)-tyrosinol] yielded a Relative therapeutic effect in series [1] (200 mg/kg/day) of 0.98. This compound yielded an LD50 in series [3] above 4000 mg/kg. The corresponding values for `COc1ccc(C(=O)N[C@H](CO)Cc2ccc(O)cc2)cc1` are 1.76 and above 4000 mg/kg. In turn, `O=C(N[C@H](CO)Cc1ccc(O)cc1)OCc1ccc(Cl)cc1` yielded a Relative therapeutic effect in series [1] (200 mg/kg/day) of 0.81. Turning to `COc1ccc(COC(=O)N[C@H](CO)Cc2ccc(O)cc2)cc1` [drawing 17], the Relative therapeutic effect in series [2] (50 mg/kg/day) stood at 7.72. `COc1ccc(COC(=O)N[C@H](CO)Cc2ccc(O)cc2)cc1` [drawing 11] had a Relative therapeutic effect in series [1] (200 mg/kg/day) of 1.75. The LD50 in series [3] was above 4000 mg/kg. The corresponding values for `COc1ccc(C[C@@H](CO)NC(=O)OCc2ccccc2)cc1` [O-methyl-N-benzyloxycarbonyltyrosinol] are 1.03 and above 4000 mg/kg. As for `COC(Cc1ccccc1)C(=O)N[C@H](CO)Cc1ccc(O)cc1` (stereo partly drawn) [N-(α -methoxy-β-phenylpropionyl)-tyrosinol], the 50% lethal dose (LD50) in series [3] is above 4000 mg/kg. Take `COc1cc(C(=O)N[C@H](CO)Cc2ccc(O)cc2)cc(OC)c1OC`: the Relative therapeutic effect in series [1] (200 mg/kg/day) stood at 1.43. In series [3], this compound had an LD50 above 4000 mg/kg. Take `CC(C)=CCCC(C)=CCCC(C)=CCCC(=O)OC/C=C(\C)CCC=C(C)C` [Gefarnate, geranyl farnesylacetate, reference compound]: the Relative therapeutic effect in series [2] (200 mg/kg/day) worked out at 0.77; in series [1] (200 mg/kg/day), 1.06. As for `O=C(N[C@@H](Cc1ccccc1)C(=O)N[C@@H](Cc1ccc(O)cc1)C(=O)O)c1ccccc1` [Compound (II) R3 =H, N-benzoylphenylalanyltyrosine] (Bz-Phe-Tyr-OH), the Relative therapeutic effect in series [1] (200 mg/kg/day) is on record as 1.19. Besides, the LD50 in series [3] was above 4000 mg/kg. With `COc1ccccc1C(=O)N[C@H](CO)Cc1ccc(O)cc1`, the Relative therapeutic effect in series [1] (200 mg/kg/day) is on record as 1.29.

In series [1] (200 mg/kg/day), `O=C(N[C@H](CO)Cc1ccc(O)cc1)OCC1CCCCC1` had a Relative therapeutic effect of 1.60. In series [1] (200 mg/kg/day), `Cc1ccc(COC(=O)N[C@H](CO)Cc2ccc(O)cc2)cc1` had a Relative therapeutic effect of 1.81. Besides, the LD50 in series [3] was above 4000 mg/kg.
